Assay results published in patent publication US20040077879A1, “Bis (amino acid) molecular scaffolds” (priority 2002, published 2004).
≈ marks a conversion by molar mass, not a printed value. Like-named read-outs stand apart in the source and are kept apart here.

Test: Solubility (dissolved, centrifuged, HPLC peak integrated relative to a tyrosine standard)
Type: physicochemical
Source text: Pure three-mer scaffolds and five-mer scaffolds with extended rod-like structures in useful amounts have been synthesized. Three units of building block 1:pro4(2S4S) (Sequence 1) were assembled to form the molecular rod 19 using sequential solid phase synthesis on a 46 μmole scale (Scheme 4). The synthesis took place on an AM resin with a Rink Amide linker available from Novabiochem. […] After coupling three monomers, an Fmoc-Tyr(t-Bu)-OAt residue was coupled to increase the hydrophobicity of the final scaffold so that it would bind to a C18 column. After removal of the tyrosine Fmoc group, the amine terminus rapidly attacked the adjacent methyl ester to form a diketopiperazine […] (indicated in the sequence as cyclo-(Tyr)). The flexible oligomer 17 was cleaved from the resin and its mass was confirmed by reverse phase liquid chromatography with mass spectrometry (RP-LCMS). The carboxybenzyl (Cbz) groups were then removed by hydrogenolysis to obtain 18. The flexible oligomer 18 was converted into the rigidified scaffold 19 through the parallel formation of two diketopiperazine rings by exposure to 20% piperidine/DMF over 48 hours at 4° C.[25] […] Solubility was measured by dissolving the compound in 0.1% TFA, centrifuging it, injecting the solution into an HPLC and integrating the resulting peak relative to a tyrosine standard. […]

Compound | solubility (10% D2O/H2O, unpurified material, read-out: soluble in 10% D2O/H2O) [µg/mL] | solubility (water, read-out: soluble in water) [µg/mL]
COC(=O)[C@]1(N)C[C@H]2C(=O)N[C@]3(C[C@H]4C(=O)N[C@]5(C[C@H]6C(=O)N[C@]7(C[C@H]8C(=O)N[C@@]9(CN[C@H](C(=O)N[C@@H](Cc%10ccc(O)cc%10)C(N)=O)C9)C(=O)N8C7)C(=O)N6C5)C(=O)N4C3)C(=O)N2C1 [scaffold 20] | 5000 (≈ 5.54 mM) | –
NC(=O)[C@@H]1C[C@@]2(CN1)NC(=O)[C@@H]1C[C@@]3(CN1C2=O)NC(=O)[C@@H]1C[C@@]2(CN1C3=O)NC(=O)[C@H](Cc1ccc(O)cc1)NC2=O [scaffold 19] | – | > 5000
